Assay: gradient 5% acetonitrile 3 min, to 50% in 2 min, to 85% in 15 min, held 3 min, 100 µL/min
Conditions: column: Zorbax Extend-C18 2.1 x 50 mm; eluents: water / acetonitrile, 0.1% formic acid
Procedure, shortened: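 Each retention time is based on an adduct peak selected computationally and verified by manual inspection. Measurements used HPLC–quadrupole time-of-flight mass spectrometry in positive and negative ionization mode on mixtures of ~100 pure standards. Chromatography ran on a Zorbax Extend-C18 column (2.1 × 50 mm, 1.8 μm) at 100 μL/min with water and acetonitrile, each containing 0.1% formic acid, and dead and dwell volumes of 40 μL and 900 μL.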

Row | SMILES | RP-LC retention time [s]
1 | COc1c(C(=O)NC2CCCC2)sc2cccc(F)c12 | 1100
2 | CCC1CCCCN1CCCNC(=O)c1cc(S(=O)(=O)N2CCCC2)ccc1Cl (centres undefined) | 661
3 | CCOC(=O)c1ccc(NC(=O)c2cccc([N+](=O)[O-])c2)cc1 | 890
4 | Cc1nccn1CC(=O)N1CCCC(OCc2nc(C(C)C)no2)C1 (centres undefined) | 596
5 | CC(C)NC(=O)c1ccc(OCC2CCN(C(=O)c3ccc(C(F)(F)F)cc3)CC2)cc1 | 935
6 | O=C(NCCc1ccc(Cl)cc1)C(=O)Nc1ccc(F)cc1F | 971
7 | O=C1NC2(CCN(C(=O)c3ccc(F)cc3)CC2)Nc2cc(Cl)ccc21 | 742
8 | CCOc1ccccc1CN1C(=O)C2(CCOCC2)CC1c1nnnn1C(C)(C)C (centres undefined) | 799
9 | COc1ccc(NC(=O)N2C[C@@H]3C[C@H]2C[C@@H]3NS(=O)(=O)c2ccccc2)c(C)c1 | 764
10 | CCN1C(=O)CCc2cc(NC(=O)c3n[nH]c4ccccc34)ccc21 | 761
11 | COC(=O)c1nc(NC(=O)Cn2nc3c(cc2=O)CCCCC3)sc1CC(C)C | 941
12 | CCOCCCNC(=O)C1CCN(c2nccnc2Oc2cccc(C)c2)CC1 | 861
13 | CCC(=O)N(C1CCOCC1)C1CCN(S(=O)(=O)c2ccccc2)CC1 | 764
14 | CCC(=O)N(C1CCOCC1)C1CCN(S(=O)(=O)c2ccc(Cl)cc2)CC1 | 886
15 | COc1ccc(C2(C)NC(=O)N(CC(=O)Nc3ccc([N+](=O)[O-])cc3)C2=O)cc1 (centres undefined) | 727
16 | CCCC(NC(=O)c1ccc(OCC)c(OCC)c1)C(=O)Nc1nc2ccccc2[nH]1 (centres undefined) | 733
17 | COC(=O)c1ccc(NC(=O)C(=O)NCCOc2ccc(F)cc2)cc1 | 870
18 | Cc1ccc(S(=O)(=O)c2nc(SCC(=O)N3CCCCC3)sc2Cl)cc1 | 910
19 | Cc1ccc(NC(=O)C2CCCN(C(=O)C3Sc4ccccc4NC3=O)C2)cc1 (centres undefined) | 741
20 | CCOC(=O)N1CCC2(CC1)N=C(c1ccc(Cl)cc1)CC(c1cccc(OC)c1O)N2 (centres undefined) | 781
21 | COc1cc(NC(=O)Cn2ccnc2-c2ccnc(N3CCOCC3)c2)cc(OC)c1 | 625
22 | Cc1ccc(C)c(NC(=O)NC2CCN(c3ccccc3)C2=O)c1 (centres undefined) | 823
23 | Cc1c(O)ccc2c1oc(=O)c1ccccc12 | 808
24 | Cc1[nH]c(C(=O)N2CCN(c3ccccc3F)CC2)c(C)c1S(=O)(=O)N1CCOCC1 | 793
25 | Cc1csc(NC(=O)CSc2nnc(NC(=O)c3cc(C)on3)s2)n1 | 692
26 | CC(=O)NCc1csc(C2CCN(C(=O)COc3ccccc3)CC2)n1 | 646

Row | SMILES | RP-LC retention time [s]
27 | CC(C)c1cccc(NC(=O)C2CCN(C(=O)c3ncn4c3COC(c3ccccc3)C4)CC2)c1 (centres undefined) | 921
28 | Cc1ccc2[nH]c(=O)c(CCC(=O)NC(C)c3cn(C)nc3C)cc2c1 (centres undefined) | 618
29 | CCOc1cc2c(cc1OCC)C1C(C(=O)NCCCN3CCCC3)c3ccccc3C(=O)N1CC2 (centres undefined) | 624
30 | Cc1ccc(CNC(=O)C2CCCN(c3nccnc3Sc3ccc(C)cc3)C2)cc1 (centres undefined) | 1090
31 | CCn1cnc(S(=O)(=O)N2CCC(C(=O)Nc3ccc(OC)c(OC)c3)CC2)c1 | 704
32 | CC1CCN(c2cc(-n3cnc(C(=O)N4CCCCCC4)c3)ncn2)CC1 | 1010
33 | CCCn1c(C)cnc1C1CN(C(=O)c2cccs2)C1 | 586
34 | COc1cc(NC(=O)C2CCCN(c3nccnc3Sc3ccccc3)C2)cc(OC)c1OC (centres undefined) | 984
35 | CCc1nnc(-c2ccc(S(=O)(=O)N3CCN(C4CCCCC4)CC3)o2)o1 | 637
36 | CCn1cc2c3c(cccc31)CN(C(=O)Nc1cc(OC)c(OC)c(OC)c1)CC2 | 742
37 | COCc1noc([C@@H]2CC(F)(F)CN2C(=O)c2cncn2C)n1 | 584
38 | O=C(Nc1ccc(Cl)cc1F)C1Oc2ccccc2NC1=O (centres undefined) | 824
39 | CNC(=O)C1CCCN(c2nc3ncn(CC(=O)NCc4ccc(Cl)cc4)c(=O)c3s2)C1 (centres undefined) | 666
40 | CCc1ccc(S(=O)(=O)N2CCC(C(=O)NCCc3csc(-c4cccs4)n3)CC2)cc1 | 1000
41 | CC(=O)Nc1ccc(CCc2nc3ccc(C(=O)NC4CC4)cc3[nH]2)cc1 | 893
42 | Cc1cc(=O)n(CC(=O)Nc2cc(F)cc(F)c2)c(N2CCOCC2)n1 | 724
43 | COc1ccccc1-c1ccc(N2CCN(C(=O)c3ccccc3Cl)CC2)nn1 | 626
44 | COc1ccc(S(=O)(=O)N2CCCC(C(=O)Nc3ccccc3Br)C2)cc1C (centres undefined) | 1040
45 | Cc1ccc(NC(=O)C2CC(=O)N(CCc3c[nH]c4ccc(F)cc34)C2)cc1C (centres undefined) | 867
46 | O=c1n(Cc2ccccc2)nc2n1CCN(S(=O)(=O)c1ccc3c(c1)OCCO3)CC2 | 818
47 | COCCOCc1nc(C2CCCN2C(=O)c2ccsc2)no1 (centres undefined) | 679
48 | CCC(=O)NCCc1csc(C2CCN(C(=O)C3CCC3)CC2)n1 | 679
49 | CN1C(=O)c2cc(S(=O)(=O)NCc3ccccc3Cl)ccc2Oc2cccnc21 | 903
50 | Cc1cc2c(=O)n(CC(=O)Nc3ccc(Cl)cc3)ccc2s1 | 852
51 | Cc1nc(N)nc(Cl)c1CCC1OCCO1 | 673
52 | O=C(Nc1ccc(Cl)cc1F)NC1CCN(c2cc(N3CCOCC3)cnn2)C1 (centres undefined) | 649

Second part, the compound after the results:

Row | RP-LC retention time [s] | SMILES
53 | 846 | O=S(=O)(c1ccc2nncn2c1)N(Cc1ccc(F)cc1)c1ccccc1
54 | 844 | Cc1ccc(NC(=O)Nc2cnn(-c3ncc(N4CCCC4)cn3)c2)c(Cl)c1
55 | 1010 | Cc1oc(-c2ccccc2)nc1Cc1noc(Cc2c[nH]c3ccccc23)n1
56 | 661 | O=C(c1ccc(Nc2nc3ccccc3n3nnnc23)cc1)N1CCN(c2ccccn2)CC1
57 | 735 | Cn1nnc(-c2ccc(-c3ccc(N4C[C@@H](CO)OC4=O)cc3F)cn2)n1
58 | 1270 | Cc1sc(C)c(S(=O)(=O)N2CCN(c3ccc(F)cc3)CC2)c1-c1cc(C(F)(F)F)on1
59 | 894 | CCOc1ccccc1CNc1nccc(-n2nc(C)cc2C)n1
60 | 714 | Cc1nc(-c2noc(-c3cccnc3)n2)cn1CC(=O)N1CCc2ccccc21
61 | 995 | COc1ccc(-c2nnc(Cc3nc(-c4cccc(Cl)c4)no3)o2)cc1OC
62 | 816 | CC(C)NC(=O)c1ccc2ccnc(N3CCN(c4ccc(Cl)cc4)CC3)c2c1
63 | 1230 | Cc1ccc(C)c(-c2coc(-c3ccc(NC(=O)Cc4cccs4)cc3)n2)c1
64 | 830 | Cc1ccc(N2N=C(C(=O)N3CCCC3)S(=O)(=O)c3cccnc32)cc1
65 | 1020 | Cc1ccc(-c2ccc(=O)n(Cc3nc(-c4ccc5c(c4)OCO5)no3)n2)cc1
66 | 716 | CSc1ccc(-c2nc3ccc(C)cn3c2Nc2ccc3c(c2)OCCO3)cc1
67 | 861 | O=C(c1cc2occc2c(Nc2ccc(Cl)cc2)n1)N1CCN(C(=O)c2ccco2)CC1
68 | 787 | COc1ccc(-c2nc(C3CC(=O)N(c4ccc(OC)c(OC)c4)C3)no2)cc1OC (centres undefined)
69 | 930 | COc1ccc(C)cc1NC(=O)Cc1csc2nc(-c3ccc(C)c(C)c3)cn12
70 | 586 | CN(C)CCNC(=O)c1ccc(Nc2c(-c3ccccc3)nc3cnccn23)cc1
71 | 875 | Cc1oc(-c2ccc(NC(=O)c3ccc(N(C)C)cc3)cc2)nc1Cn1cccn1

Row | RP-LC retention time [s] | SMILES
72 | 821 | Cc1nn(CC(=O)N2CCN(c3ccc(Cl)cc3)CC2)c(=O)c2noc(C)c12
73 | 833 | Cc1cc(N2CCN(c3ccccn3)CC2)n2nc(C(F)(F)F)c(-c3ccccc3Cl)c2n1
74 | 833 | Cc1cccc(C#Cc2ccccc2)n1
75 | 770 | CCc1nnc2ccc(-c3noc(COc4ccc(Cl)cc4)n3)cn12
76 | 1000 | CC1CCN(C(=O)C2=NN(Cc3ccc(F)cc3)c3ccccc3S2(=O)=O)CC1
77 | 1240 | CC(C)c1ccc(OCC(=O)Nc2nc(-c3ccccc3)cs2)cc1
78 | 734 | CCn1nccc1C(=O)N1CCC2(CC1)N=C(c1ccc(C)cc1)NO2
79 | 659 | COC(=O)c1cnc2nc(C)ccc2c1NCc1ccc2c(c1)OCO2
80 | 945 | Nc1nc(-c2ccc(Cl)cc2)nn1C(=O)C1CC1
81 | 887 | Cc1nc(-c2cn(C)c3ncccc23)sc1C(=O)NCc1ccc(F)cc1F
82 | 679 | c1cc(-c2nc(-c3ccc4nncn4c3)no2)co1
83 | 674 | Cc1cccn2cc(-c3ccc(NS(=O)(=O)c4ccc(Br)cc4)cc3)nc12
84 | 720 | N#Cc1cc(NC(=O)Cc2nnc(-c3ccc4ncccc4c3)o2)ccc1F
85 | 944 | COc1ccccc1-c1noc(CN2C(=O)C(C)Oc3ccccc32)n1 (centres undefined)
86 | 764 | COc1ccc(-c2ncccc2CNS(=O)(=O)c2ccc(C(F)(F)F)cc2)cc1
87 | 719 | CCC(C)Nc1nc(-c2ccc(C)cc2)nnc1C (centres undefined)
88 | 1310 | Cc1nn(-c2nc(-c3ccc(Cl)cc3)cs2)c(C)c1CC(=O)N1CCCCC1C (centres undefined)
89 | 770 | N#CC1=C(SCC(=O)NCc2ccccc2)NC(=O)CC1c1ccco1 (centres undefined)

— the METLIN SMRT retention time set (Domingo-Almenara et al. 2019)
